Molecular target: T1, canine plasminogen (DPGN) (Canis lupus, UniProt P80009)
T1 construct: gene PLG; intact plasminogen purified from dog blood (samples showing conversion to lys-plasminogen or plasmin discarded)
Test: titration followed by 4th derivative near-UV absorption spectroscopy (R-values)
Type: binding

T1 sequence (P80009 with tags, fused parts or gaps): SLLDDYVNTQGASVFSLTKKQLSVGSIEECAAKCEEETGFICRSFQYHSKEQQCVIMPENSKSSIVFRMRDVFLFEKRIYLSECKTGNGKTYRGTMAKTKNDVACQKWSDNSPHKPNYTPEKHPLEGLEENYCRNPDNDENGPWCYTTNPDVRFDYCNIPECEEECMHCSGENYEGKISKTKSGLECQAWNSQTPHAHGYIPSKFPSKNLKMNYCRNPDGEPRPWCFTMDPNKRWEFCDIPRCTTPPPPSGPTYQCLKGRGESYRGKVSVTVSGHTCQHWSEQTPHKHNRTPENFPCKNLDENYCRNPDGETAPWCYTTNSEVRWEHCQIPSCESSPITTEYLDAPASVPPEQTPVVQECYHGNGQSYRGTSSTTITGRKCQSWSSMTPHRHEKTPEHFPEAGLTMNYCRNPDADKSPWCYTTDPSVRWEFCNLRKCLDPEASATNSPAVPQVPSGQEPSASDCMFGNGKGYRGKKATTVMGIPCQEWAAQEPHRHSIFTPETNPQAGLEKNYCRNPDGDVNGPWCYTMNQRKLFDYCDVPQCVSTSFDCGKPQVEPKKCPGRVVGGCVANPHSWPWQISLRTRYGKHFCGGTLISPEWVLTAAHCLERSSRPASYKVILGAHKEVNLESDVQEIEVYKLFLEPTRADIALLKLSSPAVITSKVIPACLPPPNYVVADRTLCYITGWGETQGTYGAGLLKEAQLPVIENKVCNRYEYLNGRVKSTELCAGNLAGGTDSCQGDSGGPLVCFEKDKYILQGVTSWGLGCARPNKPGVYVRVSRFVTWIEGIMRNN

Question: With `NCCCCCC(=O)O` [6-AH, 6-aminohexanoate] as the molecule, how does the Kd read?
Answer: Its Kd is roughly 1000 nM.

— publication PMC2716805, “Canine Plasminogen: Spectral Responses to Changes in 6-Aminohexanoate and Temperature” (2007)
